Reference: patent publication US20090247527A1, “SUBSTITUTED GAMMA LACTAMS AS THERAPEUTIC AGENTS” (ALLERGAN, INC., priority 2008, published 2009)
Entries after “also recorded” stand apart in the source; their conditions may differ.

Test system: lashes and adjacent hairs of patients having glaucoma
Experiment: Observation of lashes and adjacent hairs in glaucoma patients treated with bimatoprost in one eye
Type: in vivo, human
Conditions: glaucoma patients treated unilaterally; gross inspection and slit lamp biomicroscope
Excerpt: In the course of treating patients having glaucoma, treatment may only be appropriate in one eye. […] The lash appearance on the lids of the treated eyes would have appeared quite attractive if it represented a bilateral phenomenon. As a result of its asymmetric nature, the long lashes on one side could be construed as disturbing from a cosmetic standpoint. A systemic examination was preformed as a result of the asymmetric phenomenon. It soon became apparent that this altered appearance was not an isolated finding. […] Definite differences could be identified to varying degrees in the lashes and adjacent hairs of all patients who were taking the drug on a unilateral basis for longer than 6 months.
The changes in the lashes were apparent on gross inspection in several patients once attention was focused on the issue. In those with light colored hair and lashes, the differences were only seen easily with the aid of the high magnification and lighting capabilities of the slit lamp biomicroscope. In the course of glaucoma follow-up examination, attention is generally immediately focused on the eye itself. As a result of the high power magnification needed only one eye is seen at a time and the eye is seen at a high enough power that the lashes are not in focus. […]

Structure (SMILES): CCNC(=O)CCC/C=C\C[C@@H]1[C@@H](/C=C/[C@@H](O)CCc2ccccc2)[C@H](O)C[C@@H]1O [bimatoprost]
- lash / hair growth in treated eye versus non-treated eye: longer, thicker, and fuller in the treated eye than in the non-treated eye; also recorded: hair growth is stimulated
